# Measurements: patent US10221129B2, “Inhibitors of human immunodeficiency virus replication” (ViiV HEALTHCARE UK (NO.5) LIMITED, priority 2015, dated 2019)
# Like-named read-outs stand apart in the source and are kept apart here.
# Experiments:
# [1] = test system: recombinant NL4-3 virus (nef section replaced with Renilla luciferase gene) in MT-2 cells; assay: HIV cell culture assay (antiviral activity, luciferase readout); format: cell-based
# Protocol: HIV cell culture assay—MT-2 cells, 293T cells and the proviral DNA clone of NL4-3 virus were obtained from the NIH AIDS Research and Reference Reagent Program. MT-2 cells were propagated in RPMI 1640 media supplemented with 10% heat inactivated fetal bovine serum (FBS), 100 jag/ml penicillin G and up to 100 units/mL streptomycin. The 293T cells were propagated in DMEM media supplemented with 10% heat inactivated FBS, 100 μg/mL penicillin G and 100 μg/mL streptomycin. A recombinant NL4-3 proviral clone, in which a section of the nef gene was replaced with the Renilla luciferase gene, was used to make the reference virus used in these studies. The recombinant virus was prepared through transfection of the recombinant NL4-3 proviral clone into 293T cells using Transit-293 Transfection Reagent from Mirus Bio LLC (Madison, Wis.). Supernatant was harvested after 2-3 days and the amount of virus present was titered in MT-2 cells using luciferase enzyme activity as a marker by measuring luciferase enzyme activity. Luciferase was quantitated using the EnduRen Live Cell Substrate from Promega (Madison, Wis.). Antiviral activities of compounds toward the recombinant virus were quantified by measuring luciferase activity in MT-2 cells infected for 4-5 days with the recombinant virus in the presence of serial dilutions of the compound.
# (Johnson V A, Byington R T. Infectivity Assay. In Techniques in HIV Research. ed. Aldovini A, Walker B D. 71-76. New York: Stockton Press. 1990).
# [2] = Compound cytotoxicity, XTT-based colorimetric assay; format: cell-based; settings: human, uninfected MT2 cells, day 4, XTT
# Protocol: Compound cytotoxicity and the corresponding CC50 values were determined using the same protocol as described in the antiviral assay except that uninfected cells were used. Cytotoxicity was assessed on day 4 in uninfected MT2 cells by using a XTT (2,3-bis[2-Methoxy-4-nitro-5-sulfophenyl]-2H-tetrazolium-5-carboxyanilide inner salt)-based colorimetric assay (Sigma-Aldrich, St Louis, Mo.).
# [3] = Renilla, NL43, MT-2 cells infected for 4-5 days with recombinant NL4-3 Renilla luciferase virus
# [4] = MT-2 cells infected for 4-5 days with recombinant NL4-3 Renilla luciferase virus
SMILES,"EC50 [1, 3]",CC50 at 4 days [2],"EC50 [1, 4]",CC50 at 4 day [2],"EC50 ([1]; MT-2 cells infected for 4-5 days with recombinant NL4-3 Renilla luciferase virus, read-out: EC50)"
CN(C(=O)[C@H](Cc1cc(F)cc(F)c1)NC(=O)NS(=O)(=O)N1CCC(c2ccccc2)C1)c1ccc2scnc2c1 (mixture of isomers) [CA-152],550 nM,> 100000 nM,–,–,–
COc1ccc(N(C)C(=O)[C@H](Cc2ccccc2)NC(=O)NS(=O)(=O)N2CCN(C)CC2c2ccccc2)cc1 (mixture of isomers) [JB-42],450 nM,> 100000 nM,–,–,–
COc1ccc(N(C)C(=O)[C@H](Cc2ccccc2)NC(=O)NS(=O)(=O)NC(C)c2ncnn2C)cc1 (mixture of isomers) [JB-68],2370 nM,> 100000 nM,–,–,–
"CN(C)C(=O)C1Cc2cccnc2N1S(=O)(=O)NC(=O)N[C@@H](Cc1cc(F)cc(F)c1)C(=O)N(C)c1ccc2scnc2c1 (single isomer, unassigned) [BB-28]",–,> 100000 nM,6050 nM,–,–
"CN(C(=O)[C@H](Cc1cc(F)cc(F)c1)NC(=O)NS(=O)(=O)N1CCCC1c1ccccn1)c1ccc2scnc2c1 (single isomer, unassigned) [VN-1]",–,> 100000 nM,2480 nM,–,–
"CN(C(=O)[C@H](Cc1cc(F)cc(F)c1)NC(=O)NS(=O)(=O)N1CCCC1c1ccccc1)c1ccc2scnc2c1 (single isomer, unassigned) [VN-3]",–,52400 nM,850 nM,–,–
"CC1Cc2cccnc2N1S(=O)(=O)NC(=O)N[C@@H](Cc1cc(F)cc(F)c1)C(=O)N(C)c1ccc2scnc2c1 (single isomer, unassigned) [VN-6]",–,–,20 nM,> 1000 nM,–
"CC1CN(S(=O)(=O)NC(=O)N[C@@H](Cc2cc(F)cc(F)c2)C(=O)N(C)c2ccc3scnc3c2)c2ncccc21 (single isomer, unassigned) [VN-14]",–,> 100000 nM,–,–,–
CN(C(=O)[C@H](Cc1cc(F)cc(F)c1)NC(=O)NS(=O)(=O)N1CCOc2cccnc21)c1ccc2scnc2c1 [AW-1],110 nM,> 100000 nM,–,–,–
COc1ccc2c(n1)N(S(=O)(=O)NC(=O)N[C@@H](Cc1cc(F)cc(F)c1)C(=O)N(C)c1ccc3scnc3c1)CC2 [AW-2],10 nM,> 100000 nM,–,–,–
COc1ccc(N(C)C(=O)[C@H](Cc2cc(F)cc(F)c2)NC(=O)NS(=O)(=O)N2CCC(F)(F)CC2)cc1F [AW-3],980 nM,> 100000 nM,–,–,–
COc1ccc(N(C)C(=O)[C@H](Cc2cc(F)cc(F)c2)NC(=O)NS(=O)(=O)N2CCCCC2)cc1F [AW-4],480 nM,> 100000 nM,–,–,–
CN(C(=O)[C@H](Cc1cc(F)cc(F)c1)NC(=O)NS(=O)(=O)N1CCc2cccnc21)c1ccc(=O)n(C)c1 [BB-1],11000 nM,> 100000 nM,–,–,–
CCc1ccc(N(C)C(=O)[C@H](Cc2cc(F)cc(F)c2)NC(=O)NS(=O)(=O)N2CCc3cccnc32)cc1 [BB-2],20 nM,96000 nM,–,–,–
CN(C(=O)[C@H](Cc1cc(F)cc(F)c1)NC(=O)NS(=O)(=O)N1CCc2cccnc21)c1ccc(N2CCOCC2)cc1 [BB-3],340 nM,68100 nM,–,–,–
COc1ccc(N(C)C(=O)[C@H](Cc2cc(F)cc(F)c2)NC(=O)NS(=O)(=O)N2CCc3c(Cl)ccnc32)cc1 [BB-4],420 nM,61900 nM,–,–,–
CN(C(=O)[C@H](Cc1cc(F)cc(F)c1)NC(=O)NS(=O)(=O)N1CCc2cccnc21)c1ccc(C(N)=O)cc1 [BB-5],4910 nM,> 100000 nM,–,–,–
Cc1cc(N(C)C(=O)[C@H](Cc2ccccc2)NC(=O)NS(=O)(=O)N2CCc3cccnc32)ccc1Cl [BB-6],340 nM,> 33300 nM,–,–,–
CN(C(=O)[C@H](Cc1cc(F)cc(F)c1)NC(=O)NS(=O)(=O)N1CCc2c(Cl)ccnc21)c1ccc2scnc2c1 [BB-8],440 nM,82400 nM,–,–,–
CN(C(=O)[C@H](Cc1cc(F)cc(F)c1)NC(=O)NS(=O)(=O)N1CCc2ccncc21)c1ccc2scnc2c1 [BB-9],410 nM,> 100000 nM,–,–,–
COc1ccc(N(C)C(=O)[C@H](Cc2cc(F)cc(F)c2)NC(=O)NS(=O)(=O)N2CCc3ccncc32)cc1 [BB-10],1080 nM,> 100000 nM,–,–,–
CCCc1ccc(N(C)C(=O)[C@H](Cc2cc(F)cc(F)c2)NC(=O)NS(=O)(=O)N2CCc3cccnc32)cc1 [BB-11],10 nM,66300 nM,–,–,–
CC(C)Oc1ccc(N(C)C(=O)[C@H](Cc2cc(F)cc(F)c2)NC(=O)NS(=O)(=O)N2CCc3cccnc32)cn1 [BB-12],20 nM,94900 nM,–,–,–
Cc1cc(F)cc(N(C)C(=O)[C@H](Cc2cc(F)cc(F)c2)NC(=O)NS(=O)(=O)N2CCc3cccnc32)c1 [BB-13],270 nM,89500 nM,–,–,–

SMILES,"EC50 [1, 3]",CC50 at 4 days [2],"EC50 [1, 4]",CC50 at 4 day [2],"EC50 ([1]; MT-2 cells infected for 4-5 days with recombinant NL4-3 Renilla luciferase virus, read-out: EC50)"
Cc1ccc(N(C)C(=O)[C@H](Cc2cc(F)cc(F)c2)NC(=O)NS(=O)(=O)N2CCc3cncnc32)cc1F [BB-14],20 nM,93100 nM,–,–,–
Cc1cc(N(C)C(=O)[C@H](Cc2cc(F)cc(F)c2)NC(=O)NS(=O)(=O)N2CCc3cccnc32)ccc1C#N [BB-15],460 nM,> 100000 nM,–,–,–
Cc1cc(N(C)C(=O)[C@H](Cc2cc(F)cc(F)c2)NC(=O)NS(=O)(=O)N2CCc3cccnc32)ccc1Cl [BB-16],30 nM,56300 nM,–,–,–
Cc1cc(N(C)C(=O)[C@H](Cc2cc(F)cc(F)c2)NC(=O)NS(=O)(=O)N2CCc3cccnc32)ccc1F [BB-17],70 nM,91200 nM,–,–,–
CC(C)c1ccc(N(C)C(=O)[C@H](Cc2cc(F)cc(F)c2)NC(=O)NS(=O)(=O)N2CCc3cccnc32)cn1 [BB-18],10 nM,> 100000 nM,–,–,–
COc1cncc(N(C)C(=O)[C@H](Cc2cc(F)cc(F)c2)NC(=O)NS(=O)(=O)N2CCc3cccnc32)c1 [BB-19],3270 nM,> 100000 nM,–,–,–
Cc1ccc(N(C)C(=O)[C@H](Cc2cc(F)cc(F)c2)NC(=O)NS(=O)(=O)N2CCc3cccnc32)cc1Cl [BB-20],60 nM,60700 nM,–,–,–
COc1ccc(N(C)C(=O)[C@H](Cc2cc(F)cc(F)c2)NC(=O)NS(=O)(=O)N2CCC[C@H]2C(=O)N(C)C)cc1 [BB-21],750 nM,> 100000 nM,–,–,–
CN(C)C(=O)[C@@H]1CCCN1S(=O)(=O)NC(=O)N[C@@H](Cc1cc(F)cc(F)c1)C(=O)N(C)c1ccc2scnc2c1 [BB-22],380 nM,> 100000 nM,–,–,–
CN(C(=O)[C@H](Cc1cc(F)cc(F)c1)NC(=O)NS(=O)(=O)N1CCc2cccnc21)c1ccc(Cl)c(C#N)c1 [BB-23],280 nM,> 100000 nM,–,–,–
CN(C(=O)[C@H](Cc1cc(F)cc(F)c1)NC(=O)NS(=O)(=O)N1CCc2cccnc21)c1ccc(CC(F)F)cc1 [BB-24],10 nM,> 33300 nM,–,–,–
CN(C(=O)[C@H](Cc1cc(F)cc(F)c1)NC(=O)N(C)S(=O)(=O)N1CCc2cccnc21)c1ccc2scnc2c1 [BB-25],530 nM,> 33300 nM,–,–,–
CN(C)C(=O)[C@H]1CCCN1S(=O)(=O)NC(=O)N[C@@H](Cc1cc(F)cc(F)c1)C(=O)N(C)c1ccc2scnc2c1 [BB-26],310 nM,> 100000 nM,–,–,–
COc1ccc(N(C)C(=O)[C@H](Cc2cc(F)cc(F)c2)NC(=O)NS(=O)(=O)N2CCC[C@@H]2C(=O)N(C)C)cc1 [BB-27],970 nM,> 100000 nM,–,–,–
CN(C(=O)[C@H](Cc1cc(F)cc(F)c1)NC(=O)NS(=O)(=O)N1CCc2cccnc21)c1ccc2cncnc2c1 [BB-30],260 nM,> 100000 nM,–,–,–
COc1ccc(N(C)C(=O)[C@H](Cc2cc(F)cc(F)c2)NC(=O)NS(=O)(=O)N2CCc3cccnc32)cc1 [BB-31],10 nM,> 33300 nM,–,–,–
COc1ccc(N(C(=O)[C@H](Cc2cc(F)cc(F)c2)NC(=O)NS(=O)(=O)N2CCc3cccnc32)C2CC2)cc1 [BB-32],50 nM,62600 nM,–,–,–
CN(C(=O)[C@H](Cc1cc(F)cc(F)c1)NC(=O)NS(=O)(=O)N1CCCC1=O)c1ccc2scnc2c1 [BB-33],450 nM,> 100000 nM,–,–,–
O=C(N[C@@H](Cc1cc(F)cc(F)c1)C(=O)N(CCOCc1ccccc1)c1ccc2scnc2c1)NS(=O)(=O)N1CCc2cccnc21 [BB-34],40 nM,70600 nM,–,–,–
CN(C(=O)[C@H](Cc1cc(F)cc(F)c1)NC(=O)NS(=O)(=O)N1CCc2cccnc21)c1ccc(OC(F)F)cc1 [BB-35],10 nM,97200 nM,–,–,–
CCN(CC)S(=O)(=O)NC(=O)N[C@@H](Cc1cc(F)cc(F)c1)C(=O)N(C)c1ccc(OC(F)F)cc1 [BB-36],160 nM,> 100000 nM,–,–,–
CN(C(=O)[C@H](Cc1cc(F)cc(F)c1)NC(=O)NS(=O)(=O)N(C)C)c1ccc(OC(F)F)cc1 [BB-37],100 nM,> 100000 nM,–,–,–
COc1ccc(N(C)C(=O)[C@H](Cc2ccccc2)NC(=O)NS(=O)(=O)N2CCc3c(Cl)cccc32)cc1 [CA-1],250 nM,21400 nM,–,–,–
COc1ccc(N(C)C(=O)[C@H](Cc2ccccc2)NC(=O)NS(=O)(=O)NCc2n[nH]c3ccccc23)cc1 [JB-67],–,–,–,–,180 nM
